Each structure is given as a SMILES string.

A word on the IC50: it is the midpoint of a concentration-inhibition curve.

Assay [1] relates to IFN induction in virus-stimulated THP1 cells. The experiment in a line: Human cGAS cell assay, baculovirus-stimulated THP1-Dual cells, Lucia luciferase reporter (THP1(vir) IC50).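 Further: IRF-dependent luminescence, 8 concentrations up to 10 µM in 1% DMSO, 0% = unstimulated cells, 100% = DMSO plus virus, counter assay stimulated with cGAMP downstream of cGAS.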 Conditions: Homo sapiens, THP-1. Format: cell-based. (A reporter such as luciferase makes a cellular process visible.)
Text: THP1-Dual™ cells (InvivoGen #thpd-nfis) expressing IRF dependent Lucia luciferase reporter were used as basis for both assays. For the detection of cellular cGAS activity cells were stimulated by a baculovirus (pFastbac-1, Invitrogen, no coding insert) infection that delivers the cGAS enzyme stimulating double-stranded DNA (measurement of THP1(vir) IC50).
For the counter assay, cells were stimulated by cGAMP (SigmaAldrich #SML1232) to activate the identical pathway independent and directly downstream of cGAS (measurement of THP1(cAMP) IC50). Pathway activity was monitored by measuring the Lucia luciferase activity induced by either DNA stimulated cGAS enzyme activity (measurement of THP1^(vir) IC50) or by cGAMP directly (measurement of THP1(cAMP) IC50, counter assay).
Typically, 8 concentrations were used with the highest concentration at 10 μM in the final assay volume followed by ˜1:5 dilution steps. DMSO concentration was set to 1% in the final assay volume. The 384 well assay plate contained 21 test compounds (column 1-22), and DMSO in column 23 and 24.
The baculovirus solution was then added 1:200 (may have varied according to virus batch) to the cells (measurement of THP1(vir) IC50).
30 μL of the cell/virus-mix were added to each well of the compound plate from column 1-23 via MultiDrop Combi dispenser (5000 cells/well). In column 24, 30 μl/5000 cells/well without virus were added as a low control.
The plates were then incubated for 18 h at 37° C. in a humidified incubator.
Following that, 15 μL of QuantiLuc detection reagent (InvivoGen #rep-qlcg5) were added to each well using a MultiDrop Combi. Measurement was done immediately after the addition using an EnVision reader (US-luminescence read-mode).
Data Evaluation and Calculation:
For data evaluation and calculation, the measurement of the low control was set as 0% control and the measurement of the high control was set as 100% control. The IC50 values were calculated using the standard 4 parameter logistic regression formula. Calculation: [y=(a−d)/(1+(x/c)^b)+d], a=low value, d=high value; x=conc M; c=1C50 M; b=slope
Assay [2] relates to IFN induction in cGAMP-stimulated THP1 cells. As to the kind of experiment: cGAMP stimulated counter cell assay, THP1-Dual cells, Lucia luciferase reporter (THP1(cGAMP) IC50).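 Further: IRF-driven Lucia luciferase luminescence after 18 h at 37° C, compound series topping at 10 µM with 1% DMSO, unstimulated wells as 0% and DMSO wells as 100%.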 The format is cell-based. As to conditions: Homo sapiens, THP-1, THP1-Dual cells stimulated with 10 μM cGAMP.
Assay [3] has as its system IFN induction in dsDNA-stimulated human whole blood. As to the kind of experiment: Human whole blood assay, dsDNA transfection, IFNα2a production (hWB IC50).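 Further: cGAS pathway activity, IFNα2a in plasma by MSD immunoassay after 22 h at 37 °C, 8 concentrations up to 10 µM in 0.1% DMSO, DMSO controls.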 The format is cell-based.
Experimental: For the detection of cellular cGAS activity human whole blood was stimulated by transfection with double stranded DNA. Pathway activity was monitored by measuring the IFNα2α production.
Typically, 8 concentrations were used with the highest concentration at 10 μM in the final assay volume followed by ˜1:5 dilution steps. DMSO concentration was set to 0.1% in the final assay volume. The 96-well assay plate contained 10 test compounds, and DMSO in control wells.
Whole blood was kept at room temperature for a maximum of 3 hours after collection until use in the assay.
160 μl of the whole blood samples was transferred to each well of the 96-well assay plates filled with compound/OptiMEM. All assay plates were prepared as duplicates with blood from different donors. Blood plates were kept at room temperature for 60 minutes and continuous shaking with 450 rpm, covered with the lid, but not sealed.
20 μl OptiMEM and 9.6:1 Fugene was added to all low control wells.
After covering assay plates with aera seals and the lid, blood plates were kept at room temperature for 30 minutes and continuous shaking with 450 rpm, followed by an overnight incubation of 22 h at 37° C. in the incubator, without shaking.
U-Plex MSD GOLD 96-well Small Spot Strepavidin SECTOR Plates (Meso Scale Diagnostics #L45SA-5) were coated with 25 μl diluted capture antibody. Coated plates were incubated for 60 min at room temperature under continuous shaking at 700 rpm. MSD IFNα-2a plates were washed three times with 150 μl wash buffer (1×HBSS, 0.05% Tween).
After blocking the plates with 100 μl block solution/well (1×HBSS with 0.2% Tween, 2% BSA) for 60 min at room temperature and continuous shaking at 700 rpm, plates were emptied as dry as possible by dumping just before continuing with the human plasma.
Whole Blood assay plates were centrifuged at 1600 rpm for 10 minutes. 25 μl of supernatant was transferred with a pipetting robot from each whole blood plate to the corresponding IFNα-2a plate.
Plates were sealed with microplate seals and kept at room temperature again under continuous shaking at 700 rpm for two hours.
Next MSD IFNα-2a plates were washed three times with 150 μl wash buffer (1×HBSS, 0.05% Tween), before adding 25 μl MSD SULFO-TAG IFNα-2a Antibody solution (1:100 diluted in Diluent 3 (Meso Scale Diagnostics #R50AP-2) to each well of the plates.
Afterwards plates were sealed with microplate seals and kept at room temperature again under continuous shaking at 700 rpm for two hours. Finally, MSD IFNα-2α plates were washed three times with 150 μl wash buffer (1×HBSS, 0.05% Tween). 150 μl 2× Read buffer was added to each well and plates were immediately measured with the MSD Sector S600 Reader using the vendor barcode.
For data evaluation and calculation, % control calculation of each well was based on the mean of high (DNA stimulated control) and mean of low (unstimulated control) controls by using the following formula: [counts(sample)−counts(low))/(counts(high)−counts(low))]*100
The IC50 values were calculated using the standard 4 parameter logistic regression formula. Calculation: [y=(a−d)/(1+(x/c)^b)+d], a=low value, d=high value; x=conc M; c=1C50 M; b=slope
Assay [4] deals with cGAS. Conditions: as disclosed on page 45 of WO 2020/142729; read-out: biochemical (in vitro) IC50-value group; cited from earlier work.

As for `Cc1nc(N2C[C@@H](Cc3nn[nH]n3)C[C@H]2C(=O)O)c2oc3ccccc3c2n1` [Example 25, reference compound], the IC50 in assay [1] is 17 µM; in assay [1] (baculovirus-stimulated THP1-Dual cells, 18 h), greater than 17 µM; in assay [2] it was greater than 17 µM; in assay [3] it was greater than 9.99 µM; in assay [4], less than 0.1 µM.

The values are drawn from patent US12043625B2, “Pyridine derivatives with c-linked cyclic substituents as cGAS inhibitors” (BOEHRINGER INGELHEIM INTERNATIONAL GMBH, priority 2021, dated 2024).
